From ChEMBL document CHEMBL1201862, “PubChem BioAssay data set” (2004) come the findings set out here.

Common to all, as to assay: inhibition of tumour cell growth, NCI panel, 48 h
Assay [1] relates to SNB-75.
Assay [2] concerns SN12C.
The test system of assay [3] is U-251.
For assay [4], the system named is OVCAR-3.
The test system of assay [5] is T47D.
For assay [6], the system named is SR.
Assay [7] has as its system SK-OV-3.
Assay [8] deals with BT-549.
Assay [9] concerns NCI-H460.
The test system of assay [10] is 786-0.
Assay [11] has as its system HCT-116.
Assay [12] concerns OVCAR-8.
Assay [13] concerns CCRF-CEM.
The subject of assay [14] is ACHN.
In assay [15] the test system is OVCAR-5.
Assay [16] deals with IGROV-1.
Assay [17] deals with NCI/ADR-RES.
Assay [18] deals with K562.
Assay [19] concerns Malme-3M.
The subject of assay [20] is HT-29.

Structures are written as SMILES.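 Compound exposure: 48 hours, 5 concentrations, 96-well plates. At the GI50, growth is halved.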 The source made the active and inactive calls. Rule as the data show it: active = GI50 up to about 1.1 µM and inactive = higher. A value given as a limit tells only on which side of the number the result lay.

For the compound `COC(=O)C1(C(=O)OC)N=C(C)OC1c1ccccn1` (stereo not drawn), the GI50 in [1], in assay [2], in assay [3], in assay [4], in assay [5] and in assay [6] was > 100 µM (inactive) throughout. Moreover, the GI50 in assay [7], in assay [8], in [9], in [10], in assay [11] and in assay [12] was > 100 µM (inactive) in each case. The GI50 in assay [13], in assay [14], in assay [15], in assay [16], in [17] and in assay [18] was > 100 µM (inactive) throughout.
With `O=C1/C(=C/c2ccc(Br)s2)NC(=S)N1CN1CCCCC1`, the GI50 in assay [1] was 44.6 µM (inactive); in [2], 34.8 µM (inactive); in assay [3], 28.8 µM (inactive); in assay [4], 22.4 µM (inactive); in [5], 30.5 µM (inactive); in [6], 15.8 µM (inactive). The GI50 in [19] is 58.7 µM (inactive); in assay [8] it was 25.9 µM (inactive); in assay [9], 36.1 µM (inactive); in assay [10], 36.4 µM (inactive); in assay [11], 31 µM (inactive); in assay [12], 33.3 µM (inactive). Besides, the GI50 in [14] is 46 µM (inactive); in assay [20], 33.2 µM (inactive); in assay [15], 76.6 µM (inactive); in assay [16], 42.1 µM (inactive); in assay [17], 28.8 µM (inactive); in [18], 23.1 µM (inactive).
Turning to `C/C1=C/C[C@@H](/C(C)=C/c2csc(C)n2)OC(=O)C[C@H](O)C(C)(C)C(=O)[C@H](C)[C@@H](O)[C@@H](C)CCC1` [EPOTHILONE D], the GI50 in assay [1], in assay [2], in assay [3], in assay [4], in assay [5] and in [6] was < 0.0001 µM (active) each time. The GI50 in [7], in assay [8], in [9], in assay [10], in [11] and in assay [12] was < 0.0001 µM (active) in each case. Also, the GI50 in assay [13], in assay [14], in assay [20], in assay [15], in assay [16] and in assay [17] was < 0.0001 µM (active) throughout. The GI50 in [18] was < 0.0001 µM (active).
For the compound `O=C(/C=C1\Nc2ccccc2N\C1=C/C(=O)c1ccc(F)cc1)c1ccc(F)cc1`, the GI50 was > 100 µM (inactive) in [1]; > 100 µM (inactive) in [2]; 73.6 µM (inactive) in [3]; 48.2 µM (inactive) in assay [4]; 63 µM (inactive) in [5]; 54.3 µM (inactive) in assay [6]. For the same compound, the GI50 in assay [19] is > 100 µM (inactive); in assay [8], > 100 µM (inactive); in [9], 53.7 µM (inactive); in assay [10] it was 61.4 µM (inactive); in assay [11], > 100 µM (inactive); in assay [12], > 100 µM (inactive). Further, the GI50 in assay [13] was 25.5 µM (inactive); in assay [14], > 100 µM (inactive); in assay [20] it was > 100 µM (inactive); in assay [15], > 100 µM (inactive); in [16], > 100 µM (inactive); in assay [17], > 100 µM (inactive). In assay [18], the GI50 was > 100 µM (inactive).
With `C/C=C1/CC(C)C(C)(O)C(=O)OCC2C(O)CN3CCC(OC1=O)C23` (stereo not drawn), the GI50 in assay [1], in assay [2], in [3], in assay [5], in [6] and in assay [7] was > 100 µM (inactive) throughout. The GI50 in [8], in [9], in assay [10], in assay [11], in [12] and in assay [13] was > 100 µM (inactive) throughout. For the same compound, the GI50 in [14], in assay [20], in [15], in [16], in [17] and in assay [18] was > 100 µM (inactive) in each case.
As to `NC(=O)NCCCC(NC(=O)OCCCCCCn1ccc(=O)[nH]c1=O)C(=O)O` (stereo not drawn), the GI50 in assay [1] was > 100 µM (inactive); in assay [2] it was 50.2 µM (inactive); in [3], > 100 µM (inactive); in assay [4] it was > 100 µM (inactive); in assay [5], > 100 µM (inactive); in [6], 9.42 µM (inactive). Besides, the GI50 in [7], in [8], in [9], in [10], in assay [11] and in assay [12] was > 100 µM (inactive) each time. Also, the GI50 in [13], in assay [14], in [20], in [15], in assay [16] and in [17] was > 100 µM (inactive) in each case. Besides, in [18], the GI50 is > 100 µM (inactive).
`C=C1CCC2CC1[C@@H](C(=O)c1c[nH]c3ccccc13)NC2(C)C` (stereo partly drawn): the GI50 is > 37.5 µM (inactive) in assay [1]; > 37.5 µM (inactive) in assay [2]; > 37.5 µM (inactive) in assay [3]; > 37.5 µM (inactive) in assay [4]; 30.6 µM (inactive) in [5]; 33 µM (inactive) in assay [6]. Also, the GI50 in assay [19], in assay [8], in [9], in [10], in assay [11] and in [12] was > 37.5 µM (inactive) throughout. The GI50 was > 37.5 µM (inactive) in assay [13]; > 37.5 µM (inactive) in assay [14]; 29.7 µM (inactive) in assay [20]; > 37.5 µM (inactive) in assay [15]; > 37.5 µM (inactive) in assay [16]; > 37.5 µM (inactive) in assay [17]. For the same compound, the GI50 in [18] was 21.9 µM (inactive).
As for `CSc1nc(NC(C)C)c2c(n1)Sc1nc3ccccc3n1C2O` (stereo not drawn), the GI50 in assay [1] is 4.61 µM (inactive); in assay [2] it was 9.57 µM (inactive); in assay [3] it was 3.11 µM (inactive); in assay [4] it was 2.51 µM (inactive); in [5], 4.2 µM (inactive); in assay [6] it was 2.84 µM (inactive). For the same compound, the GI50 is 1.98 µM (inactive) in assay [19]; 5.28 µM (inactive) in [7]; 6.79 µM (inactive) in assay [8]; 4.11 µM (inactive) in assay [10]; 4.13 µM (inactive) in [11]; 4.9 µM (inactive) in assay [12]. For the same compound, the GI50 in assay [13] is 1.75 µM (inactive); in [14], 7.93 µM (inactive); in assay [20], 3.09 µM (inactive); in [16], 8.04 µM (inactive); in assay [17], 2.56 µM (inactive); in assay [18], 3.15 µM (inactive).
